Laboratory results reported in US7585877B2, “Aminophenyl derivatives as selective androgen receptor modulators” (Acadia Pharmaceuticals, Inc., priority 2005, dated 2009).
Counter-ions that a name gives are not always drawn. Like-named read-outs stand apart in the source and are kept apart here.

Tests used:
Androgen AR receptor = biological target: T1, Androgen AR receptor (Homo sapiens, UniProt P10275); experiment: Receptor Selection and Amplification Technology (R-SAT) functional receptor assay; format: cell-based; conditions: for Emax: read-out: % Efficacy
T1 construct: expressed in transfected cells; host or cells: NIH3T3 cells
T1 sequence (P10275 1-920): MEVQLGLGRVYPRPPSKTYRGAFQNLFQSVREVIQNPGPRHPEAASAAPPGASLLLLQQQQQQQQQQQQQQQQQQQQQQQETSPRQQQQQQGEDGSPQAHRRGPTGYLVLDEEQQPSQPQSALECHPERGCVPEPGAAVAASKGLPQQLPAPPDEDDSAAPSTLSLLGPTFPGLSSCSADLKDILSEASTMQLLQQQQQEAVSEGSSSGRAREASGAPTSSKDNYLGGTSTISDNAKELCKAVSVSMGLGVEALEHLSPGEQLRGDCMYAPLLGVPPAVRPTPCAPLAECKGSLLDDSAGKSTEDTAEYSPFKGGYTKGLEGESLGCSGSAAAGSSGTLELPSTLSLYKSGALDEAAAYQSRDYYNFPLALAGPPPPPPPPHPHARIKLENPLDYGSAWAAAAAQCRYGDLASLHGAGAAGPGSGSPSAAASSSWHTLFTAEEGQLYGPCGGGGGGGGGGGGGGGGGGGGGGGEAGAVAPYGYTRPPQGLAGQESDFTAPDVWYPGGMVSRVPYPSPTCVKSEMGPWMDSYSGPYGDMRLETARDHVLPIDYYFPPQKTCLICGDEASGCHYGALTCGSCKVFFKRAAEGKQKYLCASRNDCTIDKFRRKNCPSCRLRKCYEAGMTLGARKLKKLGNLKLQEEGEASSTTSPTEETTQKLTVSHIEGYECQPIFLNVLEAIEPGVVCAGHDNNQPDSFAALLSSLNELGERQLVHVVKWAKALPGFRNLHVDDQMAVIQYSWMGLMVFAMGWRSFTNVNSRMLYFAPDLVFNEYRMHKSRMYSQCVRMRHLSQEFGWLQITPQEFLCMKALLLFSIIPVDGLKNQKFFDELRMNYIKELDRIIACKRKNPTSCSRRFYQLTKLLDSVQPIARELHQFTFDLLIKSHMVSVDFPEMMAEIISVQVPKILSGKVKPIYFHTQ
Procedure: The functional receptor assay, Receptor Selection and Amplification Technology (R-SAT™), was used with minor modifications from the procedure described previously (Brann, M. R., U.S. Pat. No. 5,707,798, which is hereby incorporated herein by reference in its entirety) to screen compounds for efficacy at the Androgen AR receptor. Briefly, NIH3T3 cells were grown in roller bottles to 70-80% confluence. Cells were then transfected for 12-16 h with plasmid DNAs using Polyfect (Qiagen Inc.) as per the manufacturer's protocol. R-SAT assays were typically performed by transfecting 30 ug/bottle of receptor and 50 ug/bottle of β-galactosidase plasmid DNA. All receptor and helper constructs used were in mammalian expression vectors. Helpers are defined as signaling molecules that modulate both ligand-dependent and/or ligand-independent function of the AR receptor, typically co-activators.
NIH3T3 cells were transfected for 12-16 h, then trypsinized and frozen in DMSO. Frozen cells were later thawed, plated at 10,000-40,000 cells per well of a 96 well plate containing drug. Cells were then grown in a humidified atmosphere with 5% ambient CO2 for five days. Media was then removed from the plates and marker gene activity was measured by the addition of the β-galactosidase substrate o-nitrophenyl β-D-galactopyranoside (ONPG, in PBS with 5% NP-40). The resulting colorimetric reaction was measured in a spectrophotometric plate reader (Titertek Inc.) at […]. All data were analyzed using the computer program XLFit (IDBSm).

[1] = tested on: castrated male Sprague Dawley rats; experiment: In vivo activity in castrated rats: wet tissue weights; design: species or system rat
Procedure: (§1) Test compounds of formula I are administered p.o. daily for two weeks to castrated male Sprague Dawley rats (n=3). The effects of the test compounds (1, 3, 10, 30 mg/kg) are compared to testosterone propionate (1 and 3 mg/kg s.c.; positive control) and vehicle (10% Tween80; negative control). Blood and wet weights of prostate gland and seminal vesicle are measured after sacrifice that occurs 24 hours after the last dose. Blood is collected in heparin collection tubes after sacrifice that occurred 24 hours after the last dose. Blood is centrifuged and plasma collected and plasma samples frozen.

[2] = tested on: Rat luteinizing hormone (LH) plasma levels; experiment: In vivo activity in castrated rats: plasma luteinizing hormone (ELISA); conditions: castrated rats (FIG. 4)
Procedure: as §1
Rat luteinizing hormone (LH) plasma levels are determined using an enzyme linked immunoabsorbent assay (ELISA) from Amersham as per manufacturer's instructions. The solid phase assay is based on the competition between unlabeled rLH and a fixed quantity of biotin labelled rLH for a limited amount of rLH specific antibody. A conjugate streptavidin/peroxidase allows for signal amplification and detection in presence of the substrate.

[3] = R-SAT, transfected NIH3T3 cells

Q: Which EC50 (Androgen AR receptor) does the source give for Cc1c(N2[C@@H]3CC[C@H]2C[C@@H](O)C3)ccc(C#N)c1Cl [165RL90, 2-Chloro-4-(3-endo-hydroxy-8-azabicyclo[3.2.1]octan-8-yl)-3-methylbenzonitrile, hydrochloride] here?
A: 2 nM

Q: And the Emax (Androgen AR receptor; [3])?
A: 81%

Q: With Cc1c(N2[C@@H]3CC[C@H]2C[C@@H](O)C3)ccc([N+](=O)[O-])c1Cl [173FBA73bL, endo-8-(3-chloro-2-methyl-4-nitrophenyl)-8-azabicyclo[3.2.1]octan-3-ol] as the molecule, how does the Emax (Androgen AR receptor; [3]) read?
A: 80%

Q: And the EC50 (Androgen AR receptor; R-SAT, transfected NIH3T3 cells, read-out: pEC50 (converted))?
A: 3.16 nM

Q: Cc1c(N2[C@@H]3CC[C@H]2C[C@@](C)(O)C3)ccc(C#N)c1Cl [198RL26, 2-Chloro-4-(3-endo-hydroxy-3-exo-methyl-8-azabicyclo[3.2.1]oct-8-yl)-3-methylbenzonitrile hydrochloride] was tested. Which EC50 (Androgen AR receptor) did it give?
A: 1.58 nM

Q: What about the Emax (Androgen AR receptor; [3]) of the same molecule?
A: 79%

Q: And the “wet tissue weights (prostate, seminal vesicle, levator ani muscle)” value ([1]; 3 mg/kg daily s.c. (so in the source) for two weeks, castrated rats)?
A: did not appear to significantly alter wet tissue weights

Q: And the “dose relative to TP at which negative side effects (increased seminal vesicle and prostate size) become evident” value ([1]; castrated rats, two weeks daily dosing)?
A: at least 100 × of TP

Q: What about the “wet tissue weights (prostate, seminal vesicle, levator ani muscle)” value ([1]; higher doses (3 and 10 mg/kg) daily, castrated rats) of the same molecule?
A: appeared to significantly increase wet tissue weights, however, not to the extent of TP

Q: And the “plasma LH levels” value ([2]; 10 mg/kg p.o. for 14 days)?
A: complete reversal

Q: And the “plasma LH levels” value ([2]; various doses, p.o. for 14 days)?
A: dose-dependent suppression of plasma LH levels

Q: With CCC(=O)O[C@H]1CC[C@H]2[C@@H]3CCC4=CC(=O)CC[C@]4(C)[C@H]3CC[C@]12C [testosterone propionate, reference compound] as the molecule, how does the “prostate wet tissue weight as compared to vehicle treatment” value ([1]; 1 mg/kg daily s.c. for two weeks, castrated rats (FIG. 1)) read?
A: significant increases

Q: What about the “seminal vesicle wet tissue weight as compared to vehicle treatment” value ([1]; 1 mg/kg daily s.c. for two weeks, castrated rats (FIG. 2)) of the same molecule?
A: significant increases

Q: And the “levator ani muscle wet tissue weight as compared to vehicle treatment” value ([1]; 1 mg/kg daily s.c. for two weeks, castrated rats (FIG. 3))?
A: significant increases

Q: And the “plasma LH levels” value ([2]; 1 mg/kg, s.c. for 14 days)?
A: restored LH levels to those obtained in naive rats
